The values that follow come from ChEMBL document CHEMBL4028815, “Novel phosphonate analogs of sulforaphane: Synthesis, in vitro and in vivo anticancer activity” (Eur J Med Chem, 2017).

Series [1] concerns Mus musculus. Briefly: Toxicity in BALB/c mdb mouse implanted with mouse 4T1 cells assessed as hematocrit at 100 umol/kg, ip administered five times weekly measured at 29 day post cell innoculum (reference value: 39.9 +/- 3.7 %). Particulars: in vivo, 696 h. Type of series: organism-based.
Series [2] deals with LoVo. In words: Potency index, ratio of sulforaphane IC50 to compound IC50 for human LoVo cells. In kind it is functional.
In series [3] the test system is Mus musculus. Briefly: Toxicity in BALB/c mdb mouse implanted with mouse 4T1 cells assessed as RBC level at 100 umol/kg, ip administered five times weekly measured at 29 day post cell innoculum (reference value: 8.6 +/- 0.9 10^6/uL). Type of series: organism-based. Particulars: in vivo, 696 h.
Series [4] relates to LoVo. In words: Cytotoxicity against human LoVo cells after 72 hrs by sulforhodamine B assay. In kind it is functional, cell-based. Background: The SRB assay estimates cell density from bound dye.
Series [5] relates to Mus musculus. In words: Toxicity in BALB/c mdb mouse implanted with mouse 4T1 cells assessed as serum urea level at 100 umol/kg, ip administered five times weekly measured at 29 day post cell innoculum (reference value: 3.8 +/- […]). Type of series: organism-based. As to conditions: in vivo, 696 h.
The subject of series [6] is LoVo. Briefly: Potency index, ratio of benzyl isothiocyanate IC50 to compound IC50 for human LoVo cells. Type of series: functional.
Series [7] in a line: Cytotoxicity against human LoVo/DX cells after 72 hrs by sulforhodamine B assay. Type of series: functional, cell-based.
In series [8] the test system is Mus musculus. In words: Toxicity in BALB/c mdb mouse implanted with mouse 4T1 cells assessed as WBC level at 100 umol/kg, ip administered five times weekly measured at 29 day post cell innoculum (reference value: 212.3 +/- 82.8 10^3/uL). Type of series: organism-based. Particulars: in vivo, 696 h.
Series [9] relates to Mus musculus. Briefly: Toxicity in BALB/c mdb mouse implanted with mouse 4T1 cells assessed as spleen weight at 100 umol/kg, ip administered five times weekly measured at 29 day post cell innoculum (reference value: 0.603 +/- 0.133 g). In kind it is organism-based. Particulars: in vivo, 696 h.
Series [10] deals with 4T1. Briefly: Anti-tumor activity against mouse 4T1 cells implanted in BALB/c mdb mouse assessed as tumor growth inhibition at 100 umol/kg, ip administered five times weekly measured on day 29 post cell innoculum relative to control. As to conditions: 4T1, ip, 696 h, read-out: TGI. Type of series: functional.
The test system of series [11] is Mus musculus. Briefly: Hepatotoxicity in BALB/c mdb mouse implanted with mouse 4T1 cells assessed as liver weight at 100 umol/kg, ip administered five times weekly measured at 29 day post cell innoculum (reference value: 1.2 +/- 0.13 g). In kind it is toxicity, organism-based. As to conditions: in vivo, 696 h.
Series [12] relates to Mus musculus. In words: Nephrotoxicity in BALB/c mdb mouse implanted with mouse 4T1 cells assessed as kidney weight at 100 umol/kg, ip administered five times weekly measured at 29 day post cell innoculum (reference value: 0.136 +/- 0.006 g). Type of series: toxicity, organism-based. Particulars: in vivo, 696 h.
In series [13] the test system is 4T1. In words: Anti-tumor activity against mouse 4T1 cells implanted in BALB/c mdb mouse assessed as tumor growth inhibition at 100 umol/kg, ip administered five times weekly measured on day 15 post cell innoculum relative to control. Type of series: functional. As to conditions: 4T1, ip, 360 h, read-out: TGI.
The subject of series [14] is Mus musculus. Briefly: Toxicity in BALB/c mdb mouse implanted with mouse 4T1 cells assessed as body weight loss at 100 umol/kg, ip administered five times weekly measured 3 times weekly during compound dosing. Type of series: organism-based. Particulars: in vivo.
Series [15] concerns Mus musculus. Briefly: Toxicity in BALB/c mdb mouse implanted with mouse 4T1 cells assessed as serum AST level at 100 umol/kg, ip administered five times weekly measured at 29 day post cell innoculum (reference value: 136 +/- 10.3 U/L). In kind it is organism-based. Particulars: in vivo, 696 h.
For series [16], the system named is Mus musculus. In words: Toxicity in BALB/c mdb mouse implanted with mouse 4T1 cells assessed as hemoglobin level at 100 umol/kg, ip administered five times weekly measured at 29 day post cell innoculum (reference value: 15.1 +/- 1.5 g/dl). Type of series: organism-based. As to conditions: in vivo, 696 h.
Series [17] relates to Mus musculus. In words: Toxicity in BALB/c mdb mouse implanted with mouse 4T1 cells assessed as serum PLT level at 100 umol/kg, ip administered five times weekly measured at 29 day post cell innoculum (reference value: 972 +/- 157 10^3/uL). In kind it is organism-based. Particulars: in vivo, 696 h.
The nature of series [18]: Resistance index, ratio of IC50 for human LoVo/DX cells to IC50 for human LoVo cells. In kind it is functional.
The test system of series [19] is 4T1. Briefly: Anti-tumor activity against mouse 4T1 cells implanted in BALB/c mdb mouse assessed as lung metastasis at 100 umol/kg, ip administered five times weekly measured at 29 days post cell innoculum (reference value: 56 +/- 25). In kind it is functional.
Series [20] has as its system Mus musculus. Briefly: Toxicity in BALB/c mdb mouse implanted with mouse 4T1 cells assessed as serum creatinine level at 100 umol/kg, ip administered five times weekly measured at 29 day post cell innoculum (reference value: 9.3 +/- 1.2 umol/L). In kind it is organism-based. Particulars: in vivo, 696 h.
Series [21] deals with Mus musculus. In words: Toxicity in BALB/c mdb mouse implanted with mouse 4T1 cells assessed as serum ALT level at 100 umol/kg, ip administered five times weekly measured at 29 day post cell innoculum (reference value: 23.8 +/- 2.2 U/L). In kind it is organism-based. Particulars: in vivo, 696 h.
The test system of series [22] is Mus musculus. In words: Toxicity in BALB/c mdb mouse implanted with mouse 4T1 cells assessed as lung weight at 100 umol/kg, ip administered five times weekly measured at 29 day post cell innoculum (reference value: 0.2 +/- 0.018 g). Type of series: organism-based. As to conditions: in vivo, 696 h.
In another series the test system is MES-SA/Dx5. In words: Cytotoxicity against human MESSA/DX5 cells after 72 hrs by sulforhodamine B assay. In kind it is functional, cell-based. As to conditions: MES-SA/Dx5, 72 h.
Another series has as its system MES-SA. In words: Cytotoxicity against human MESSA cells after 72 hrs by sulforhodamine B assay. In kind it is functional, cell-based.
A short description of series [23]: Resistance index, ratio of IC50 for human MESSA/DX5 cells to IC50 for human MESSA cells. In kind it is functional.

In the case of `CC(C)COP(=O)(CCCCCCN=C=S)OCC(C)C`, the Activity is 53% with Mus musculus [1]; 10.8 ×10⁶ /uL in the series with Mus musculus [3]; 5.2 mmol/L with Mus musculus [5]; 311.2 ×10³ /uL in the series with Mus musculus [8]; 0.578 g in the series on Mus musculus [9]; 1.25 g with Mus musculus [11]. For the same compound, the Activity was 0.127 g in the series with Mus musculus [12]; “<= 10%” in the series on Mus musculus [14]; 153.6 U/L in the series with Mus musculus [15]; 19.2 g/dL in the series with Mus musculus [16]; 831 ×10³ /uL in the series with Mus musculus [17]; 58 in the series with 4T1 [19]. In addition, the Activity in the series on Mus musculus [20] was found to be 8.2 µmol/L; in the series on Mus musculus [21] it was 33.1 U/L; in the series on Mus musculus [22], 0.199 g. Moreover, the “Ratio IC50” value with LoVo [2] is 10; with LoVo [6] it was 5; in series [18], 3.4. In addition, the results for the IC50 (in the series with LoVo [4]; in series [7]) were 2700 nM and 9.2 µM, respectively. Moreover, the inhibition in vivo at 100 µmol/kg with 4T1 [10] was found to be 14.3%; in the series on 4T1 [13], 31%.

`COc1cccc2c1C(=O)c1c(O)c3c(c(O)c1C2=O)C[C@@](O)(C(=O)CO)C[C@@H]3O[C@H]1C[C@H](N)[C@H](O)[C@H](C)O1` [DOXORUBICIN]: the 50% inhibitory concentration (IC50) (as a rule, the midpoint of a concentration-inhibition curve) came to 300 nM in the series on LoVo [4], 12.2 µM in series [7], 13.9 µM with MES-SA/Dx5 and 100 nM in the series with MES-SA. In addition, the “Ratio IC50” value in series [23] is given as 100.
